Data as given in patent publication US9861616B2, “Methods for treating respiratory diseases and formulations therefor” (priority 2013, dated 2018).
Values after ≈ are worked out from the molar mass of the structure shown.

Columns and labels:
MMP9 activity = assay: PMA-induced MMP9 activation in U937 cells (gelatin zymography); type: cell-based, human
Procedure: Effects of macrolides on phorbol 12-myristate 13-acetate (PMA)-induced MMP9 activation in U937 cells. […] After 48 h supernatants were collected for zymography. MMP9 enzyme activity was measured by gelatin zymography. Data are expressed relative to standard.
(§1) The human monocytic cell line U937 was obtained from the American Type Culture Collection (ATCC, Rockville, Md.). PBMCs from COPD patients were obtained from Brompton hospital and separated by AccuSPIN (Sigma-Aldrich). Cells were cultured in complete growth medium (RPMI 1640) (Sigma-Aldrich) supplemented with 10% fetal bovine serum (FBS) and 1% L-glutamine at 37° C. in a humidified atmosphere with 5% CO2. U937 cells were differentiated into adherent macrophage-like morphology by exposure to PMA (50 ng/mL) for 48 hrs in complete growth medium. Cell viability was assessed microscopically by trypan blue staining. Cell toxicity was determined by MTT assay as needed. This study was approved by the ethics committee of the Royal Brompton Hospitals, and all subjects gave written informed consent.
MMP9 enzyme activity was measured by gelatin zymography. Cell culture supernatants were diluted with equal amount of Laemli sample buffer (Bio-Rad, Hertfordshire, UK) and loaded on a Novex® 10% Zymogram (Gelatin) gel (Invitrogen Ltd, Paisley, UK). After electrophoresis, gels were incubated and rinsed with Novex® zymogram renaturing buffer (Invitrogen) for 30 min at room temperature. The gels were then rinsed in Novex® zymogram developing buffer (Invitrogen) for 30 min at room temperature prior to overnight incubation in the developing buffer at 37° C. After incubation, the gels were stained using a Colloidal Blue Staining Kit (Invitrogen) to visualize the zymogen bands.
(§2) The results were expressed as the mean±SEM. Comparisons of data in two groups were performed using the Student's t test or the Wilcoxon signed rank test. Multiple comparisons were made by one-way ANOVA with post hoc test (Dunnett's) as appropriate. The difference was considered significant at p<0.05. IC50 values (50% inhibitory concentration) for macrolides for production of cytokines or MMP9 were calculated using Prism 4.0 (GraphPad Software Inc., San Diego, Calif.).

TNFα release = assay: LPS-induced TNFα release in PMA-differentiated U937 cells (ELISA); type: cell-based, human
Procedure: Effects of macrolides on lipopolysaccharide (LPS)-induced TNFα release in PMA-differentiated U937 cells. […] LPS-induced TNFα release was evaluated by ELISA. Values represent means of three experiments±SEM. ^##p<0.01 (vs. non-treatment control), *p<0.05, **p<0.01 (vs. treatment with LPS only).
as §1
TNFα and IL-8 concentrations in the supernatant of cell cultures were determined by sandwich ELISA according to the manufacturer's instructions (R&D Systems Europe, Abingdon, UK).
as §2

P. aeruginosa (PA) = assay: MIC by microdilution, 36 clinical and laboratory strains with known efflux phenotype; type: cell-based
Procedure: MICs of 36 clinical and laboratory strains of PA with known efflux phenotype are measured by microdilution in cation-adjusted Muller-Hinton broth (CA-MHB) or in RPMI medium (commonly used in eukaryotic cell culture). Phe-Arg-β-naphthylamide (PaβN, 50 mg/L) and EGTA 5 mM are used to inhibit efflux pumps and alter OM integrity, respectively. P. aeruginosa strain ATCC PAO1 is used as reference. PA12 is a clinical strain overexpressing the 4 main efflux systems (MexAB, MexCD, MexEF, MexXY), PA403 is a laboratory strain deleted in the genes coding for the 4 efflux systems. A series of reference strains or of clinical isolates for which the expression of genes coding for efflux pumps is known is also used for MICs determinations. MICs are measured by microdilution in MH broth or in RPMI medium (used for eukaryotic cells culture) supplemented with 10% of fetal calf serum, or in MH broth supplemented by increasing amounts of serum. EGTA (5 mM) was used as a chelating agent (disrupting outer membrane integrity) and PaβN (50 mg/L) as an unspecific efflux inhibitor.

Q: `CC[C@H]1OC(=O)[C@H](C)[C@@H](O[C@H]2C[C@@](C)(OC)[C@@H](O)[C@H](C)O2)[C@H](C)[C@@H](O[C@@H]2O[C@H](C)C[C@H](N(C)C)[C@H]2O)[C@](C)(OC)C[C@@H](C)C(=O)[C@H](C)[C@@H](O)[C@]1(C)O` [CLR, clarithromycin] was tested. Which “inhibitory effect on MMP9 activity, lower than CEM-101” value (MMP9 activity) did it give?
A: 10 fold

Q: And the IC50 (MMP9 activity; Homo sapiens, U-937, read-out: IC50, PMA-induced MMP9 activation)?
A: 118 µM

Q: What about the IC50 (TNFα release; PMA-differentiated U937 cells, read-out: IC50, LPS-induced TNFα release) of the same molecule?
A: 426 µM

Q: What about the “effect on TNFα production” value (TNFα release; at a higher concentration (333 μM)) of the same molecule?
A: modest effects

Q: What about the MIC (P. aeruginosa (PA); strain 1, efflux AB+, MHB) of the same molecule?
A: 512 µg/mL (≈ 685 µM)

Q: And the MIC (P. aeruginosa (PA); strain 1, efflux AB+, RPMI)?
A: 32 µg/mL (≈ 42.8 µM)

Q: And the MIC (P. aeruginosa (PA); strain 2, efflux CD+, MHB)?
A: 512 µg/mL (≈ 685 µM)

Q: What about the MIC (P. aeruginosa (PA); strain 2, efflux CD+, RPMI) of the same molecule?
A: 128 µg/mL (≈ 171 µM)

Q: And the MIC (P. aeruginosa (PA); strain 3, efflux EF+, RPMI)?
A: 16 µg/mL (≈ 21.4 µM)

Q: And the MIC (P. aeruginosa (PA); strain 4, efflux XY+, MHB)?
A: 512 µg/mL (≈ 685 µM)

Q: What about the MIC (P. aeruginosa (PA); strain 4, efflux XY+, RPMI) of the same molecule?
A: 32 µg/mL (≈ 42.8 µM)

Q: And the MIC (P. aeruginosa (PA); strain 11, efflux AB + CD+, MHB)?
A: 512 µg/mL

Q: What about the MIC (P. aeruginosa (PA); strain 11, efflux AB + CD+, RPMI) of the same molecule?
A: 16 µg/mL

Q: And the MIC (P. aeruginosa (PA); strain 12, efflux AB + CD + EF + XY+, MHB)?
A: 512 µg/mL

Q: What about the MIC (P. aeruginosa (PA); strain 12, efflux AB + CD + EF + XY+, RPMI) of the same molecule?
A: 16 µg/mL

Q: What about the MIC (P. aeruginosa (PA); strain 16, efflux AB + XY+, MHB) of the same molecule?
A: 512 µg/mL

Q: What about the MIC (P. aeruginosa (PA); strain 16, efflux AB + XY+, RPMI) of the same molecule?
A: 64 µg/mL

Q: And the MIC (P. aeruginosa (PA); strain 21, efflux AB+, MHB)?
A: 512 µg/mL (≈ 685 µM)

Q: What about the MIC (P. aeruginosa (PA); strain 21, efflux AB+, RPMI) of the same molecule?
A: 64 µg/mL (≈ 85.6 µM)

Q: What about the MIC (P. aeruginosa (PA); strain 22, efflux XY+, MHB) of the same molecule?
A: 512 µg/mL (≈ 685 µM)

Q: And the MIC (P. aeruginosa (PA); strain 22, efflux XY+, RPMI)?
A: 32 µg/mL (≈ 42.8 µM)

Q: And the MIC (P. aeruginosa (PA); strain 40, efflux EF+, RPMI)?
A: 16 µg/mL (≈ 21.4 µM)

Q: And the MIC (P. aeruginosa (PA); strain 41, efflux CD+, MHB)?
A: 512 µg/mL (≈ 685 µM)

Q: What about the MIC (P. aeruginosa (PA); strain 41, efflux CD+, RPMI) of the same molecule?
A: 64 µg/mL (≈ 85.6 µM)

Q: And the MIC (P. aeruginosa (PA); strain 48, efflux CD + EF + XY+, MHB)?
A: 512 µg/mL

Q: What about the MIC (P. aeruginosa (PA); strain 48, efflux CD + EF + XY+, RPMI) of the same molecule?
A: 64 µg/mL

Q: And the MIC (P. aeruginosa (PA); strain 49, efflux CD + EF + XY+, MHB)?
A: 512 µg/mL

Q: What about the MIC (P. aeruginosa (PA); strain 49, efflux CD + EF + XY+, RPMI) of the same molecule?
A: 32 µg/mL

Q: And the MIC (P. aeruginosa (PA); strain 63, efflux AB + EF + XY+, MHB)?
A: 512 µg/mL

Q: And the MIC (P. aeruginosa (PA); strain 63, efflux AB + EF + XY+, RPMI)?
A: 32 µg/mL

Q: What about the MIC (P. aeruginosa (PA); strain 68, efflux AB + XY+, MHB) of the same molecule?
A: 512 µg/mL

Q: And the MIC (P. aeruginosa (PA); strain 68, efflux AB + XY+, RPMI)?
A: 64 µg/mL

Q: And the MIC (P. aeruginosa (PA); strain 133, efflux EF + XY+, MHB)?
A: 512 µg/mL

Q: And the MIC (P. aeruginosa (PA); strain 133, efflux EF + XY+, RPMI)?
A: 64 µg/mL

Q: And the MIC (P. aeruginosa (PA); strain 156, efflux EF + XY+, MHB)?
A: 512 µg/mL

Q: And the MIC (P. aeruginosa (PA); strain 156, efflux EF + XY+, RPMI)?
A: 32 µg/mL

Q: And the MIC (P. aeruginosa (PA); strain 168B, efflux CD + XY+, MHB)?
A: 512 µg/mL

Q: What about the MIC (P. aeruginosa (PA); strain 207, efflux AB + EF + XY+, MHB) of the same molecule?
A: 512 µg/mL

Q: And the MIC (P. aeruginosa (PA); strain 207, efflux AB + EF + XY+, RPMI)?
A: 64 µg/mL

Q: What about the MIC (P. aeruginosa (PA); strain 266B, efflux AB + CD+, MHB) of the same molecule?
A: 512 µg/mL

Q: And the MIC (P. aeruginosa (PA); strain 266B, efflux AB + CD+, RPMI)?
A: 64 µg/mL

Q: What about the MIC (P. aeruginosa (PA); strain 333A, efflux AB + EF+, MHB) of the same molecule?
A: 512 µg/mL

Q: And the MIC (P. aeruginosa (PA); strain 333A, efflux AB + EF+, RPMI)?
A: 64 µg/mL

Q: And the MIC (P. aeruginosa (PA); strain 335, efflux AB + EF+, MHB)?
A: 512 µg/mL

Q: What about the MIC (P. aeruginosa (PA); strain 335, efflux AB + EF+, RPMI) of the same molecule?
A: 64 µg/mL

Q: And the MIC (P. aeruginosa (PA); strain 391, efflux EF−, RPMI)?
A: 16 µg/mL (≈ 21.4 µM)

Q: And the MIC (P. aeruginosa (PA); strain 392, efflux CD−, RPMI)?
A: 16 µg/mL (≈ 21.4 µM)

Q: What about the MIC (P. aeruginosa (PA); strain 394, efflux XY−, MHB) of the same molecule?
A: 512 µg/mL (≈ 685 µM)

Q: And the MIC (P. aeruginosa (PA); strain 394, efflux XY−, RPMI)?
A: 32 µg/mL (≈ 42.8 µM)

Q: What about the MIC (P. aeruginosa (PA); strain 395, efflux HI−, RPMI) of the same molecule?
A: 32 µg/mL (≈ 42.8 µM)

Q: And the MIC (P. aeruginosa (PA); strain 396, ompH−, MHB)?
A: 64 µg/mL (≈ 85.6 µM)

Q: What about the MIC (P. aeruginosa (PA); strain 396, ompH−, RPMI) of the same molecule?
A: 16 µg/mL (≈ 21.4 µM)

Q: And the MIC (P. aeruginosa (PA); strain 397, efflux AB−, MHB)?
A: 16 µg/mL (≈ 21.4 µM)

Q: And the MIC (P. aeruginosa (PA); strain 397, efflux AB−, RPMI)?
A: 2 µg/mL (≈ 2.67 µM)

Q: What about the MIC (P. aeruginosa (PA); strain 398, efflux CD−, MHB) of the same molecule?
A: 32 µg/mL (≈ 42.8 µM)

Q: And the MIC (P. aeruginosa (PA); strain 398, efflux CD−, RPMI)?
A: 4 µg/mL (≈ 5.35 µM)

Q: And the MIC (P. aeruginosa (PA); strain 399, efflux AB − EF−, MHB)?
A: 16 µg/mL (≈ 21.4 µM)

Q: What about the MIC (P. aeruginosa (PA); strain 399, efflux AB − EF−, RPMI) of the same molecule?
A: 4 µg/mL (≈ 5.35 µM)

Q: What about the MIC (P. aeruginosa (PA); strain 400, efflux XY−, MHB) of the same molecule?
A: 16 µg/mL (≈ 21.4 µM)

Q: What about the MIC (P. aeruginosa (PA); strain 400, efflux XY−, RPMI) of the same molecule?
A: 4 µg/mL (≈ 5.35 µM)

Q: What about the MIC (P. aeruginosa (PA); strain 401, ompH−, MHB) of the same molecule?
A: 8 µg/mL (≈ 10.7 µM)

Q: What about the MIC (P. aeruginosa (PA); strain 401, ompH−, RPMI) of the same molecule?
A: 2 µg/mL (≈ 2.67 µM)

Q: What about the MIC (P. aeruginosa (PA); strain 403, efflux AB − CD − EF − XY−, MHB) of the same molecule?
A: 16 µg/mL (≈ 21.4 µM)

Q: What about the MIC (P. aeruginosa (PA); strain 403, efflux AB − CD − EF − XY−, RPMI) of the same molecule?
A: 4 µg/mL (≈ 5.35 µM)

Q: What about the MIC (P. aeruginosa (PA); strain 405, efflux AB − CD − EF − XY−, MHB) of the same molecule?
A: 8 µg/mL (≈ 10.7 µM)

Q: And the MIC (P. aeruginosa (PA); strain 405, efflux AB − CD − EF − XY−, RPMI)?
A: 4 µg/mL (≈ 5.35 µM)

Q: And the MIC (P. aeruginosa (PA); strain 434, efflux AB + CD + XY+, MHB)?
A: 512 µg/mL

Q: And the MIC (P. aeruginosa (PA); strain 434, efflux AB + CD + XY+, RPMI)?
A: 128 µg/mL

Q: What about the MIC (P. aeruginosa (PA); strain PAO1, REFERENCE, MHB) of the same molecule?
A: 512 µg/mL (≈ 685 µM)

Q: And the MIC (P. aeruginosa (PA); strain PAO1, REFERENCE, RPMI)?
A: 32 µg/mL (≈ 42.8 µM)
